The record followed here is publication PMC10597453, “Novel inhibitors that target bacterial virulence identified via HTS against intra-macrophage survival of Shigella flexneri” (mSphere, 2023).

Where two headings read alike, the source gives them in different places.

The subject of test [1] is Shigella propagation in Caco2 cells. Put plainly: Inhibition of Shigella propagation in Caco2 cells assay. Type of test: cell-based, Shigella flexneri. As to conditions: for IC50: INCACO2CELLS, Caco-2. The protocol: The inhibition of Shigella propagation in Caco2 cells assay was performed following the previously described protocol based on microcarrier cell culture which models the in vivo three-dimensional environment with the minor modifications. This protocol will be described in a forthcoming paper (V. Phat, A. Lim, S. Lozano, C. De Cozar-Gallardo, M. Castellote-Alvaro, J. Rodrigues, A. Villegas, D. Alvarez, E. Alvaro, L. Ballell-Pages, S. Baker, unpublished data) and is available upon request (see Data Availability Statement).

Test [2] concerns S. flexneri 2457T-nl in THP-1 macrophages. Briefly: Shigella intra-macrophage survival dose-response assay (luciferase readout). As to conditions: for IC50: Shigella flexneri, THP-1, 18 h, read-out: Survival inhibition IC50.
Protocol: The experimental protocol for the Shigella intra-macrophage survival screen is divided into three time segments: (i) THP-1 macrophage and bacteria preparation 1 day prior to compound screen assay, (ii) THP-1 differentiation, invasion, gentamicin treatment, dispensing of infected cells onto plates pre-dispensed with compounds to be tested, and the beginning of their incubation performed on the same day, and (iii) dispensing of the Nano-Luc substrate and luminescence readout after 18 hours of incubation.
The assay was adapted to the 1,536-well plate format for the HTS. A multidrop dispenser with the small tube metal tip cassette (Thermo Fisher Scientific) was used to seed 5 µL of the cell suspension to plates pre-dispensed with compounds to be tested that were transferred to RT 1–1.5 hours before adding infected cells. Plates were incubated for 18 hours at 37°C in a humidified atmosphere with 5% CO2.
After incubation, the bacterial count is quantified by luminescence readout. Luminescence correlated linearly with the number of viable bacteria. The Nano-Luc substrate solution was prepared according to the manufacturer (Nano-Glo Luciferase Assay System, Promega, Madison, WI, USA). A multidrop dispenser with the small tube metal tip cassette (Thermo Fisher Scientific) was used to dispense 2 µL of substrate per well, and plates were stored in the dark prior to reading. Luminescence was read (0.1 s/well) on a microplate reader (EnVision, PerkinElmer) after 30 minutes of incubation at RT.
The dose-response assay was performed following the above protocol using different plate formats.
The target of test [3] is T1, Nano-Luc reporter (S. flexneri 2457T-nl reporter strain) (Oplophorus gracilirostris, UniProt Q9GV45, A31E/A60N/A81I/F95D/I117V/K70R/L54V/L99Q/M102K/N193R/P142E/Q151K/Q38R/Q45L/V71I/Y165I).
T1 construct: expressed in transfected cells; host or cells: Shigella flexneri serotype 2a strain 2457T carrying plasmid pMK-RQ-nl
Put plainly: Nano-Luc inhibition (assay readout interference). The test is classed as cell-based.

The mark [4] stands for this setting: read-out: Nano-Luc interference IC50, S. flexneri 2457T-nl reporter strain in MH medium, 18 hours.

T1 sequence (Q9GV45 28-196 with tags or gaps with the stated changes limits assumed): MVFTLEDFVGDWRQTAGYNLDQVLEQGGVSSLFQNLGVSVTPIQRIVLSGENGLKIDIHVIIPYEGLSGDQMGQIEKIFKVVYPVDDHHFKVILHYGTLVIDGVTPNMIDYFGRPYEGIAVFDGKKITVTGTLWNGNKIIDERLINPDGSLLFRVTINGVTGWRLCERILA

One may read the IC50 as the concentration that inhibits the measured activity by half. In the case of `Cc1ccccc1-c1c(C#N)c(N)nc(SCc2ccccc2)c1C#N` [AN1-77-01], the IC50 in test [1] came out at 14 µM; in test [2] it was 0.79 µM.

As to `N#Cc1cc(C(=O)c2ccccc2O)cn(-c2ccccn2)c1=O` [AN1-152-01], the figures for the IC50 in test [1], in test [2] and in test [3] were 2.7 µM, 0.31 µM and 25 µM, respectively.

As for `N#Cc1cc(C(=O)c2ccccc2O)cn(-c2ccc(Cl)cc2)c1=O` [AN1-152-02], the IC50 in test [1] was 0.3 µM; in test [2], 0.0039 µM; in test [3], 3.7 µM.

On to `N#Cc1cc(C(=O)c2ccccc2O)cn(C2CCCC2)c1=O` [AN1-152-03], for which the figures for the IC50 in test [1], in test [2] and in test [3] were 1.7 µM, 0.48 µM and 62 µM, respectively.

For `Cc1ccc(-n2cc(C(=O)c3cc(Cl)ccc3O)cc(C#N)c2=O)cc1` [AN1-152-04], the IC50 in test [1] was 6.2 µM; in test [2], 0.57 µM.

On to `Cc1ccc(-n2cc(C(=O)c3cc(C)ccc3O)cc(C#N)c2=O)cc1` [AN1-152-05], for which the figures for the IC50 in test [1], in test [2] and in test [3] were 0.3 µM, 0.1 µM and 12 µM, respectively.

For `COc1ccc(-n2cc(C(=O)c3cc(Cl)ccc3O)cc(C#N)c2=O)cc1` [AN1-152-06], the results for the IC50 in test [1] and in test [2] were 3.9 µM and 0.49 µM, respectively.

For the compound `COc1ccc(-n2cc(C(=O)c3cc(C)ccc3O)cc(C#N)c2=O)cc1` [AN1-152-07], the values for the half-maximal inhibitory concentration (IC50) in test [1], in test [2] and in test [3] were 0.2 µM, 0.21 µM and 27 µM, respectively.

As for `Cc1ccc(-n2cc(C(=O)c3cc(F)ccc3O)cc(C#N)c2=O)cc1` [AN1-152-08], the half-inhibitory concentration (IC50) was 1.9 µM in test [1] and 0.43 µM in test [2].

For `Cc1cccc(-n2cc(C(=O)c3cc(F)ccc3O)cc(C#N)c2=O)c1` [AN1-152-09], the half-inhibitory concentration (IC50) turned out to be 10 µM in test [1] and 0.73 µM in test [2].

Consider `CCOc1ccc(-n2cc(C(=O)c3cc(F)ccc3O)cc(C#N)c2=O)cc1` [AN1-152-10], for which the “Propagation in Caco2 IC50” value in test [1] is on record as “Inactive”. Besides, the IC50 in test [2] came out at 0.24 µM; in test [3] it was 50 µM.

Regarding `N#Cc1ccc(C(=O)Nc2nnc(-c3ccncc3)s2)cc1` [AN2-45-02], the IC50 in test [1] was determined as 14 µM; in test [2], 0.89 µM.

Regarding `Cc1c(-c2cccs2)[nH]c2c(C#N)cnn2c1=O` [AN-5-02], the IC50 was 2.1 µM in test [1], 0.09 µM in test [2] and 0.78 µM in test [3].

`N#Cc1ccc(C(=O)Nc2cccc(-c3ccc(CN4CCNCC4)cc3)c2)cc1` [AN-30-01]: the “Propagation in Caco2 IC50” value in test [1] is “Inactive”. Besides, in test [2], the IC50 turned out to be 0.88 µM.

In the case of `Cc1ccc(C2=NN(C3=NC(=O)C(CC(=O)Nc4ccccc4)S3)C(c3ccccc3)C2)cc1` (centres unmarked) [Compound S-10-01], the IC50 in test [1] amounted to 0.5 µM; in test [2], 0.41 µM; in test [3], 11 µM.

Consider `Cc1ccc(NC(=O)CC2SC(N3N=C(c4cccs4)CC3c3ccccc3)=NC2=O)cc1` (centres unmarked) [Compound S-10-03], for which the IC50 turned out to be 1.1 µM in test [1] and 0.62 µM in test [2].

In the case of `COc1ccc(-n2nnnc2SC(C(=O)N(C)C)c2ccccc2)cc1` (centres unmarked) [Compound S-28-01], the IC50 in test [1] was 4.5 µM; in test [2], 0.99 µM; in test [3], 5 µM.

On to `CCc1cccc(CC)c1NC(=O)c1c(-c2ccccc2)noc1C` [Compound S-53-01], for which the IC50 in test [1] amounted to 1.5 µM; in test [2], 0.17 µM; in test [3], 1.2 µM.

As for `Cc1noc2ncn(Cc3nc(Cc4ccccc4F)no3)c(=O)c12` [Compound S-82-01], the IC50 in test [1] is 19 µM; in test [2], 1 µM; in test [3] it was 19 µM.

In the case of `Cc1cc(CNC(=O)CCc2c(C)nc3cc(O)nn3c2C)no1` [Compound S-86-01], the IC50 turned out to be 1 µM in test [1], 0.27 µM in test [2] and 1.7 µM in test [3].

For the compound `CCN(C(=O)Cn1c(-c2nonc2N)nc2ccccc21)c1ccccc1` [Compound S-134-02], the IC50 in test [1] was 4.9 µM; in test [2], 0.68 µM; in test [3], 5.1 µM.

`O=C(CN1CCc2ccccc2C1)Nc1cnccc1C(=O)O` [Compound S-136-01]: the figures for the IC50 in test [1], in test [2] and in test [3] were 3.1 µM, 0.62 µM and 3 µM, respectively.

For the compound `COc1ccc(CCNC(=O)c2nc(O)c3nnn(Cc4ccc(F)cc4)c3n2)cc1OC` [Compound S-169-01], the figures for the half-inhibitory concentration (IC50) in test [1], in test [2] and in test [3] were 21 µM, 0.59 µM and 12 µM, respectively.

For `CN(C(=O)Cc1cccs1)C1(C(=O)NC2CCCCC2)CCCCC1` [Compound S-185-01], the IC50 in test [1] was determined as 4.3 µM; in test [2], 0.7 µM; in test [3] (setting [4]) it was 3.8 µM.

For the compound `COc1ccc(N2CCN(c3nc4ncccc4o3)CC2)cc1` [Compound S-281-01], the results for the IC50 in test [1], in test [2] and in test [3] were 24 µM, 0.64 µM and 28 µM, respectively.

Turning to `CC(C)c1noc2ncc(C(=O)c3ccccc3O)cc12` [Compound S-316-01], the IC50 was found to be 1.9 µM in test [1] and 1.3 µM in test [2].

Take `CC(NC(=O)NC(C)c1cccs1)c1ccc2c(c1)OCCO2` (centres unmarked) [Compound S-378-01]: the IC50 was found to be 6.6 µM in test [1] and 1 µM in test [2].

As for `O=S(=O)(Nc1ccc(F)cc1C(F)(F)F)c1ccc(-c2cccs2)s1` [DS1-32-04], the figures for the IC50 in test [1], in test [2] and in test [3] (setting [4]) were 3.8 µM, 0.41 µM and 3.1 µM, respectively.

For the compound `O=S(=O)(Nc1ccccc1C(F)(F)F)c1ccc(-c2ccc(F)cc2)s1` [DS1-32-05], the IC50 was determined as 3.1 µM in test [1], 0.56 µM in test [2] and 3 µM in test [3].

Turning to `COc1ccc(S(=O)(=O)Nc2ccc(Cl)cc2F)cc1[N+](=O)[O-]` [DS2-187-03], the IC50 came out at 3 µM in test [1] and 0.7 µM in test [2].

In the case of `Cc1nn(-c2ccccc2)c(C)c1S(=O)(=O)Nc1nc2c(s1)CCCC2` [DS-61-01], the figures for the IC50 in test [1], in test [2] and in test [3] were 2.3 µM, 0.5 µM and 2.2 µM, respectively.

Take `COc1ccc2nc(NS(=O)(=O)c3cccc(C#N)c3)sc2c1` [DS-64-06]: the IC50 in test [1] was determined as 3.1 µM; in test [2], 0.44 µM; in test [3], 9.5 µM.

In the case of `Cc1ncccc1Oc1ncc(Cl)cc1S(=O)(=O)Nc1cccc(Cl)c1` [DS-90-01], the IC50 was 10 µM in test [1], 1.2 µM in test [2] and 65 µM in test [3].

With `COc1ccc(CN(C)S(=O)(=O)c2nnc(NC(=O)c3cccc(Cl)c3)s2)cc1OC` [DS-299-02], the values for the IC50 in test [1], in test [2] and in test [3] were 2.5 µM, 0.8 µM and 4.6 µM, respectively.

In the case of `Fc1ccc(-c2oncc2-c2nnnn2-c2ccccc2)c(F)c1` [PT-297-01], the concentration for half-maximal inhibition (IC50) turned out to be 2.1 µM in test [1], 0.43 µM in test [2] and 8.3 µM in test [3].

As for `Fc1ccc(-c2oncc2-c2nnnn2-c2ccccc2)cc1F` [PT-297-02], the IC50 in test [1] came out at 1.2 µM; in test [2], 0.27 µM; in test [3] it was 4.9 µM.

In the case of `c1ccc(-n2nnnc2-c2cnoc2-c2cccs2)cc1` [PT-297–03], the IC50 was determined as 3 µM in test [1], 0.5 µM in test [2] and 8.1 µM in test [3].

As to `COc1c(N2C[C@@H]3CCCN[C@@H]3C2)c(F)cc2c(=O)c(C(=O)O)cn(C3CC3)c12` [moxifloxacin, reference compound], the bacterial survival entry in test [2] (20 µM, macrophage permeable positive control) is reported as “no detectable bacterial survival”.
